Results reported in article PMC6199744, “Development of Chemical Proteomics for the Folateome and Analysis of the Kinetoplastid Folateome” (ACS Infectious Diseases, 2018).

System: L. major lysate proteins
Assay: Multitargeted bead mixture chemoproteomics, single concentration competition, proteome-wide
Type: binding

Structure (SMILES): Nc1nc2[nH]cc(CCc3ccc(C(=O)N[C@@H](CCC(=O)O)C(=O)O)cc3)c2c(=O)[nH]1 [PTX, pemetrexed]
- fold change relative to vehicle control (protein LMJF.35.1380, MIT[…], BETA SUBUNIT, PUTATIVE): 0.94
- fold change vs vehicle control (protein LMJF.35.1830 HY[…], CONSERVED): 0.93
- fold change vs vehicle control (protein LMJF.35.3340 6-phosphogluconate dehydrogenase): 1.01
- fold change (protein LMJF.35.3700 GIM5A PROTEIN, PUTATIVE,[…] PROTEIN, vehicle control = 1): 0.93
- fold change vs vehicle control (protein LMJF.35.3760 60S RIBOSOMAL PROTEIN L27A/L29, PUTATIVE): 1.08
- fold change relative to vehicle control (protein LMJF.35.3840, […] 2 SUBUNIT, PUTATIVE): 0.83
- fold change vs vehicle control (protein LMJF.35.3860 T-COMPLEX PROTEIN 1, ETA SUBUNIT, PUTATIVE): 0.97
- fold change (protein LMJF.35.4420 MIT[…] TRANSPORTER, PUTATIVE, vehicle control = 1): 1.01
- fold change relative to vehicle control (protein LMJF.35.4880, HY[…], CONSERVED (TPR repeat, putative)): 1.4
- fold change relative to vehicle control (protein LMJF.35.5330, ISOPENTENYL-D[…]-ISOMERASE, PUTATIVE): 1.04
- fold change relative to vehicle control (protein LMJF.36.0070, STRESS-INDUCIBLE PROTEIN STI1 HOMOLOG): 1.49
- fold change (protein LMJF.36.0480 HY[…], CONSERVED, vehicle control = 1): 0.95
- fold change vs vehicle control (protein LMJF.36.0620 HY[…], CONSERVED): 0.88
- fold change vs vehicle control (protein LMJF.36.0930 40S RIBOSOMAL PROTEIN S18, PUTATIVE): 1.13
- fold change vs vehicle control (protein LMJF.36.0990 40S RIBOSOMAL PROTEIN S10, PUTATIVE): 1.06
- fold change (protein LMJF.36.1140 SHORT CHAIN 3-HYDROXYACYL-COA DEHYDROGENASE, PUTATIVE, vehicle control = 1): 0.9
- fold change relative to vehicle control (protein LMJF.36.1260, FRUCTOSE-1,6-BI[…]): 1.12
- fold change (protein LMJF.36.1340 N-ACETYLT[…] NAT1, PUTATIVE, vehicle control = 1): 0.98
- fold change vs vehicle control (protein LMJF.36.1370 TRANSITIONAL ENDOPLASMIC RETICULUM ATPASE, PUTATIVE,VALOSIN-CONTAINING PROTEIN HOMOLOG): 0.94
- fold change vs vehicle control (protein LMJF.36.1650 […] 5 SUBUNIT, PUTATIVE): 1.01
- fold change relative to vehicle control (protein LMJF.36.2380, STEROL 24-C-METHYLTRANSFERASE, PUTATIVE): 0.95
- fold change vs vehicle control (protein LMJF.36.2950 SUCCINYL-COA LIGASE GDP-FORMING] BETA-CHAIN, PUTATIVE): 0.96
- fold change vs vehicle control (protein LMJF.36.3210 14-3-3 PROTEIN-LIKE PROTEIN): 0.92
- fold change vs vehicle control (protein LMJF.36.3410 SHORT CHAIN DEHYDROGENASE-LIKE PROTEIN): 1.04
- fold change (protein LMJF.36.3460 HY[…], CONSERVED (NIPSNAP, putative), vehicle control = 1): 0.94
- fold change (protein LMJF.36.3580 HY[…], CONSERVED (Protein of unknown function (DUF2009), putative), vehicle control = 1): 1.01
- fold change (protein LMJF.36.3750 40S RIBOSOMAL PROTEIN S27-1, PUTATIVE, vehicle control = 1): 0.86
- fold change vs vehicle control (protein LMJF.36.3910 S-ADENOSYLHO[…]): 0.95
- fold change vs vehicle control (protein LMJF.36.5010 40S RIBOSOMAL PROTEIN SA, PUTATIVE): 1.03
- fold change vs vehicle control (protein LMJF.36.5130 HY[…], CONSERVED): 0.91
- fold change vs vehicle control (protein LMJF.36.5150 HY[…], CONSERVED): 0.87
- fold change relative to vehicle control (protein LMJF.36.5380, NADH DEHYDROGENASE, PUTATIVE): 0.93
- fold change vs vehicle control (protein LMJF.36.5390 PHOSPHORIBOSYLPYR[…], PUTATIVE): 0.98
- fold change vs vehicle control (protein LMJF.36.5620 ISOLEUCYL-TRNA SYNTHETASE, PUTATIVE): 0.96
- fold change (protein LMJF.36.6430 PROTEIN TRANSPORT PROTEIN SEC23-LIKE PROTEIN, vehicle control = 1): 0.86
- fold change vs vehicle control (protein LMJF.36.6760 HY[…], CONSERVED): 0.92
- fold change relative to vehicle control (protein LMJF.[…], MIT[…] BETA SUBUNIT, PUTATIVE): 0.97
- fold change relative to vehicle control (protein LMJF.[…], POLY(A) EXPORT PROTEIN, PUTATIVE): 1.13
- fold change (vs vehicle control, protein LINJ.20.0630 CYTIDINE TR[…], PUTATIVE,CTP SYNTHASE, PUTATIVE): 0.98
- fold change (vs vehicle control, protein LINJ.20.1390 COATOMER BETA SUBUNIT, PUTATIVE): 0.66
- fold change (vs vehicle control, protein LMJF.05.1140 VACUOLAR ATPASE SUBUNIT-LIKE PROTEIN): 0.84
- fold change (vs vehicle control, protein LMJF.07.1090 DELTA-5 FATTY ACID DESATURASE): 0.92
- fold change (vs vehicle control, protein LMJF.09.0220 HY[…], CONSERVED): 0.65
- fold change (vs vehicle control, protein LMJF.11.1030 HY[…], CONSERVED): 0.9
- fold change (vs vehicle control, protein LMJF.14.0640 FATTY ACID ELONGASE, PUTATIVE): 0.83
- fold change (vs vehicle control, protein LMJF.14.0705 FATTY ACID ELONGASE, PUTATIVE): 0.85
- fold change (vs vehicle control, protein LMJF.14.1120 KINESIN K39, PUTATIVE): 0.88
- fold change (vs vehicle control, protein LMJF.16.1610 PROHIBITIN): 1.07
- fold change (vs vehicle control, protein LMJF.17.0010 HY[…], CONSERVED): 0.88
- fold change (vs vehicle control, protein LMJF.18.1130 RAS-RELATED PROTEIN RAB-5, PUTATIVE): 0.65
- fold change (vs vehicle control, protein LMJF.19.1420 CYSTEINE PEPTIDASE A (CPA)): 0.88
- fold change (vs vehicle control, protein LMJF.21.0280 HY[…], CONSERVED): 0.88
- fold change (vs vehicle control, protein LMJF.22.1560 40S RIBOSOMAL PROTEIN L14, PUTATIVE): 0.87
- fold change (vs vehicle control, protein LMJF.23.1220 T-COMPLEX PROTEIN 1, GAMMA SUBUNIT, PUTATIVE): 0.94
- fold change (vs vehicle control, protein LMJF.24.0370 ASPARTATE AMINOTRANSFERASE, PUTATIVE): 1.06
- fold change (vs vehicle control, protein LMJF.25.1770 ENOYL-COA REDUCTASE, PUTATIVE): 1.06
- fold change (vs vehicle control, protein LMJF.26.0170 60S RIBOSOMAL PROTEIN L7, PUTATIVE): 0.79
- fold change (vs vehicle control, protein LMJF.26.1550 TRIFUNCTIONAL ENZYME ALPHA SUBUNIT, MIT[…]-LIKE PROTEIN): 1.12
- fold change (vs vehicle control, protein LMJF.26.1610 PROLINE OXIDASE, MIT[…]-LIKE PROTEIN): 0.89
- fold change (vs vehicle control, protein LMJF.28.1950 X-PRO, DIPEPTIDYL-PEPTIDASE,SERINE PEPTIDASE, CLAN SC, FAMILY S15, PUTATIVE): 0.74
- fold change (vs vehicle control, protein LMJF.31.1070 BIOTIN/LIPOATE PROTEIN LIGASE-LIKE PROTEIN): 0.65
- fold change (vs vehicle control, protein LMJF.32.1370 HY[…], CONSERVED): 0.79
- fold change (vs vehicle control, protein LMJF.34.0490 IMPORTIN BETA-1 SUBUNIT, PUTATIVE): 0.77
- fold change (vs vehicle control, protein LMJF.34.4060 UBIQUITIN HYDROLASE, PUTATIVE,CYSTEINE PEPTIDASE, CLAN CA, FAMILY C19, PUTATIVE): 0.78
- fold change (vs vehicle control, protein LMJF.36.1600 […] 1 SUBUNIT, PUTATIVE): 0.85
- fold change (vs vehicle control, protein LMJF.[…] RIBOSOMAL PROTEIN S7, PUTATIVE): 1.19
